Reference: patent US20170360791A1, “PHARMACEUTICAL COMPOSITIONS FOR INCREASING THE BIOAVAILABILITY OF POORLY SOLUBLE DRUGS” (ASTEX PHARMACEUTICALS, INC., priority 2014, published 2017)
Values after ≈ are worked out from the molar mass of the structure shown. Like-named read-outs stand apart in the source and are kept apart here.

Legend:
[1] = type: physicochemical; conditions: room temperature, >24 hours
Method: The suspensions were filtered through 0.2 or 0.45 microm filters prior to HPLC analysis. Some filtrates were diluted with MeOH prior to the HPLC analysis.

[2] = MP470FB content in the supernatant of Soluplus/SIF mixtures at various time-points; type: physicochemical; parameters: MP470FB content in the supernatant: unit not given here; conditions: 37° C.

- solubility ([1]; TPGS, aqueous with cosolvent or surfactant or cyclodextrin, thermodynamic from solid, solvent TPGS, read-out: Solubility): 10000 µg/mL (≈ 22.3 mM)
- solubility ([1]; Tween 80, aqueous with cosolvent or surfactant or cyclodextrin, thermodynamic from solid, solvent Tween 80, read-out: Solubility): 6600 µg/mL (≈ 14.7 mM)
- solubility ([1]; acetic acid, organic solvent or mixture, thermodynamic from solid, solvent Acetic acid, read-out: Solubility): 2900 µg/mL (≈ 6.48 mM)
- solubility ([1]; anisole, organic solvent or mixture, thermodynamic from solid, solvent Anisole, read-out: Solubility): 1800 µg/mL (≈ 4.02 mM)
- solubility ([1]; ethanol, organic solvent or mixture, thermodynamic from solid, solvent Ethanol, read-out: Solubility): 300 µg/mL (≈ 0.67 mM)
- solubility ([1]; ethyl cinnamate, organic solvent or mixture, thermodynamic from solid, solvent Ethyl cinnamate, read-out: Solubility): 3900 µg/mL (≈ 8.71 mM)
- solubility ([1]; linoleic acid, oil or lipid, thermodynamic from solid, solvent Linoleic acid, read-out: Solubility): 20 µg/mL (≈ 0.0447 mM)
- solubility ([1]; oleic acid, oil or lipid, thermodynamic from solid, solvent Oleic acid, read-out: Solubility): 100 µg/mL (≈ 0.223 mM)
- solubility ([1]; propylene carbonate, organic solvent or mixture, thermodynamic from solid, solvent Propylene carbonate, read-out: Solubility): 2900 µg/mL (≈ 6.48 mM)
- solubility ([1]; solvent Acetone): 2600 µg/mL (≈ 5.81 mM)
- solubility ([1]; solvent Benzyl alcohol): 63000 µg/mL (≈ 141 mM)
- solubility ([1]; solvent DMA): >240000 µg/mL
- solubility ([1]; solvent DMA, listed as MP470 free base): > 240000 µg/mL
- solubility ([1]; solvent DMSO): ~130000 µg/mL (≈ 290 mM)
- solubility ([1]; solvent Glycerin): 400 µg/mL (≈ 0.894 mM)
- solubility ([1]; solvent Labrasol): 11000 µg/mL (≈ 24.6 mM)
- solubility ([1]; solvent Methanol): 500 µg/mL (≈ 1.12 mM)
- solubility ([1]; solvent NMP): 300000 to 360000 µg/mL
- solubility ([1]; solvent NMP, listed as MP470 free base): ~300000 µg/mL (≈ 670 mM)
- solubility ([1]; solvent PEG400): 14000 µg/mL (≈ 31.3 mM)
- solubility ([1]; solvent Phosal 50 PG): 500 µg/mL (≈ 1.12 mM)
- solubility ([1]; solvent Propylene glycol): 400 µg/mL (≈ 0.894 mM)
- solubility ([1]; solvent Tween 20): 8000 µg/mL (≈ 17.9 mM)
- solubility ([1]; triacetin, organic solvent or mixture, thermodynamic from solid, solvent Triacetin, read-out: Solubility): 1000 µg/mL (≈ 2.23 mM)
- MP470FB content in the supernatant ([2]; 0.2% Soluplus/SIF, MP470FB 0.2 mg/mL, 30 min): 0.082
- MP470FB content in the supernatant ([2]; 0.2% Soluplus/SIF, MP470FB 0.2 mg/mL, 2 hr): 0.084
- MP470FB content in the supernatant ([2]; 0.2% Soluplus/SIF, MP470FB 0.2 mg/mL, 4 hr): 0.089
- MP470FB content in the supernatant ([2]; 0.2% Soluplus/SIF, MP470FB 0.2 mg/mL, 6 hr): 0.087
- MP470FB content in the supernatant ([2]; 0.2% Soluplus/SIF, MP470FB 0.2 mg/mL, 24 hr): 0.107
- MP470FB content in the supernatant ([2]; 0.2% Soluplus/SIF, MP470FB 0.6 mg/mL, 30 min): 0.126
- MP470FB content in the supernatant ([2]; 0.2% Soluplus/SIF, MP470FB 0.6 mg/mL, 2 hr): 0.136
- MP470FB content in the supernatant ([2]; 0.2% Soluplus/SIF, MP470FB 0.6 mg/mL, 4 hr): 0.152
- MP470FB content in the supernatant ([2]; 0.2% Soluplus/SIF, MP470FB 0.6 mg/mL, 6 hr): 0.154
- MP470FB content in the supernatant ([2]; 0.2% Soluplus/SIF, MP470FB 0.6 mg/mL, 24 hr): 0.178
- MP470FB content in the supernatant ([2]; 0.5% Soluplus/SIF, MP470FB 0.2 mg/mL, 30 min): 0.092
- MP470FB content in the supernatant ([2]; 0.5% Soluplus/SIF, MP470FB 0.2 mg/mL, 2 hr): 0.097
- MP470FB content in the supernatant ([2]; 0.5% Soluplus/SIF, MP470FB 0.2 mg/mL, 4 hr): 0.103
- MP470FB content in the supernatant ([2]; 0.5% Soluplus/SIF, MP470FB 0.2 mg/mL, 6 hr): 0.107
- MP470FB content in the supernatant ([2]; 0.5% Soluplus/SIF, MP470FB 0.2 mg/mL, 24 hr): 0.127
- MP470FB content in the supernatant ([2]; 0.5% Soluplus/SIF, MP470FB 0.6 mg/mL, 30 min): 0.155
- MP470FB content in the supernatant ([2]; 0.5% Soluplus/SIF, MP470FB 0.6 mg/mL, 2 hr): 0.190
- MP470FB content in the supernatant ([2]; 0.5% Soluplus/SIF, MP470FB 0.6 mg/mL, 4 hr): 0.228
- MP470FB content in the supernatant ([2]; 0.5% Soluplus/SIF, MP470FB 0.6 mg/mL, 6 hr): 0.235
- MP470FB content in the supernatant ([2]; 0.5% Soluplus/SIF, MP470FB 0.6 mg/mL, 24 hr): 0.315
- MP470FB content in the supernatant ([2]; 1.0% Soluplus/SIF, MP470FB 0.2 mg/mL, 30 min): 0.096
- MP470FB content in the supernatant ([2]; 1.0% Soluplus/SIF, MP470FB 0.2 mg/mL, 2 hr): 0.104
- MP470FB content in the supernatant ([2]; 1.0% Soluplus/SIF, MP470FB 0.2 mg/mL, 4 hr): 0.115
- MP470FB content in the supernatant ([2]; 1.0% Soluplus/SIF, MP470FB 0.2 mg/mL, 6 hr): 0.118
- MP470FB content in the supernatant ([2]; 1.0% Soluplus/SIF, MP470FB 0.2 mg/mL, 24 hr): 0.135
- MP470FB content in the supernatant ([2]; 1.0% Soluplus/SIF, MP470FB 0.6 mg/mL, 30 min): 0.179
- MP470FB content in the supernatant ([2]; 1.0% Soluplus/SIF, MP470FB 0.6 mg/mL, 2 hr): 0.223
- MP470FB content in the supernatant ([2]; 1.0% Soluplus/SIF, MP470FB 0.6 mg/mL, 4 hr): 0.277
- MP470FB content in the supernatant ([2]; 1.0% Soluplus/SIF, MP470FB 0.6 mg/mL, 6 hr): 0.318
- MP470FB content in the supernatant ([2]; 1.0% Soluplus/SIF, MP470FB 0.6 mg/mL, 24 hr): 0.428
- MP470FB content in the supernatant ([2]; 2.0% Soluplus/SIF, MP470FB 0.2 mg/mL, 30 min): 0.101
- MP470FB content in the supernatant ([2]; 2.0% Soluplus/SIF, MP470FB 0.2 mg/mL, 2 hr): 0.110
- MP470FB content in the supernatant ([2]; 2.0% Soluplus/SIF, MP470FB 0.2 mg/mL, 4 hr): 0.126
- MP470FB content in the supernatant ([2]; 2.0% Soluplus/SIF, MP470FB 0.2 mg/mL, 6 hr): 0.138
- MP470FB content in the supernatant ([2]; 2.0% Soluplus/SIF, MP470FB 0.2 mg/mL, 24 hr): 0.170
- MP470FB content in the supernatant ([2]; 2.0% Soluplus/SIF, MP470FB 0.6 mg/mL, 30 min): 0.206
- MP470FB content in the supernatant ([2]; 2.0% Soluplus/SIF, MP470FB 0.6 mg/mL, 2 hr): 0.290
- MP470FB content in the supernatant ([2]; 2.0% Soluplus/SIF, MP470FB 0.6 mg/mL, 4 hr): 0.368
- MP470FB content in the supernatant ([2]; 2.0% Soluplus/SIF, MP470FB 0.6 mg/mL, 6 hr): 0.409
- MP470FB content in the supernatant ([2]; 2.0% Soluplus/SIF, MP470FB 0.6 mg/mL, 24 hr): 0.469
- MP470FB content in the supernatant ([2]; 5.0% Soluplus/SIF, MP470FB 0.2 mg/mL, 30 min): 0.114
- MP470FB content in the supernatant ([2]; 5.0% Soluplus/SIF, MP470FB 0.2 mg/mL, 2 hr): 0.124
- MP470FB content in the supernatant ([2]; 5.0% Soluplus/SIF, MP470FB 0.2 mg/mL, 4 hr): 0.129
- MP470FB content in the supernatant ([2]; 5.0% Soluplus/SIF, MP470FB 0.2 mg/mL, 6 hr): 0.137
- MP470FB content in the supernatant ([2]; 5.0% Soluplus/SIF, MP470FB 0.2 mg/mL, 24 hr): 0.144
- MP470FB content in the supernatant ([2]; 5.0% Soluplus/SIF, MP470FB 0.6 mg/mL, 30 min): 0.244
- MP470FB content in the supernatant ([2]; 5.0% Soluplus/SIF, MP470FB 0.6 mg/mL, 2 hr): 0.342
- MP470FB content in the supernatant ([2]; 5.0% Soluplus/SIF, MP470FB 0.6 mg/mL, 4 hr): 0.374
- MP470FB content in the supernatant ([2]; 5.0% Soluplus/SIF, MP470FB 0.6 mg/mL, 6 hr): 0.411
- MP470FB content in the supernatant ([2]; 5.0% Soluplus/SIF, MP470FB 0.6 mg/mL, 24 hr): 0.467
- MP470FB content in the supernatant ([2]; Control (SIF), MP470FB 0.2 mg/mL, 30 min): 0.002
- MP470FB content in the supernatant ([2]; Control (SIF), MP470FB 0.2 mg/mL, 2 hr): 0
- MP470FB content in the supernatant ([2]; Control (SIF), MP470FB 0.2 mg/mL, 4 hr): 0
- MP470FB content in the supernatant ([2]; Control (SIF), MP470FB 0.2 mg/mL, 6 hr): 0
- MP470FB content in the supernatant ([2]; Control (SIF), MP470FB 0.2 mg/mL, 24 hr): 0
- MP470FB content in the supernatant ([2]; Control (SIF), MP470FB 0.6 mg/mL, 30 min): 0.002
- MP470FB content in the supernatant ([2]; Control (SIF), MP470FB 0.6 mg/mL, 2 hr): 0
- MP470FB content in the supernatant ([2]; Control (SIF), MP470FB 0.6 mg/mL, 4 hr): 0
- MP470FB content in the supernatant ([2]; Control (SIF), MP470FB 0.6 mg/mL, 6 hr): 0
- MP470FB content in the supernatant ([2]; Control (SIF), MP470FB 0.6 mg/mL, 24 hr): 0
- time MP470 is kept stable in solution by interaction with Soluplus ([2]; Soluplus/SIF): at least 24 hours
SMILES: S=C(NCc1ccc2c(c1)OCO2)N1CCN(c2ncnc3c2oc2ccccc23)CC1 [MP470 FB, amuvatinib]
